Active and inactive are the calls of the source. The calls are words filed in the database; no cut-off is given here.
How the values were obtained:
Mus musculus [1] = organism: Mus musculus; assay: animal or person
Description: Anticonvulsant activity in mouse assessed as reduction in PTZ-induced seizures

Carbonic anhydrase 9 = Carbonic anhydrase 9 (Homo sapiens, UniProt Q16790)
Description: Inhibition of human carbonic anhydrase-9 catalytic domain assessed as reduction in CO2 hydration after 15 mins by phenol red dye based stopped flow assay

[2] = Toxicity in mouse in mouse model of PTZ-induced seizures assessed as clonus occurance at 20 to 30 mg/kg, ip pretreated for 30 mins followed by PTZ addition; format: organism-based; conditions: in vivo
[3] = Toxicity in mouse assessed as sedation at 20 to 30 mg/kg; format: organism-based; conditions: in vivo
Mus musculus [4] = assay: Anticonvulsant activity in ip dosed mouse assessed as reduction in PTZ-induced seizures pretreated for 30 mins followed by PTZ addition; format: functional, organism-based

SMILES	Ki (Carbonic anhydrase 9) [nM]	other results
CC1(C)O[C@@H]2[C@@H](CO[C@@]3(COS(N)(=O)=O)OC(C)(C)O[C@@H]23)O1 [TOPIRAMATE]		ED50 (Mus musculus [1]): 22 mg/kg
CC1CCN(C(=O)c2ccc(S(N)(=O)=O)cc2)CC1	3.4	
NS(=O)(=O)c1ccc(C(=O)N2CCC(O)(c3ccc(Br)cc3)CC2)cc1	4.7	Activity [2]: Toxic; Activity [3]: Toxic; Activity (Mus musculus [4]): Active
CC1CCCCN1C(=O)c1ccc(S(N)(=O)=O)cc1 (centres undefined)	2.6	
NS(=O)(=O)c1ccc(C(=O)N2CCC(Cc3ccccc3)CC2)cc1	7	
NS(=O)(=O)c1ccc(C(=O)N2CCC(c3ccccc3)CC2)cc1	3.3	Activity [2]: Toxic; Activity [3]: Toxic; Activity (Mus musculus [4]): Active
NS(=O)(=O)c1ccc(C(=O)N2CCN(c3ccccc3)CC2)cc1	4.8	
NS(=O)(=O)c1ccc(C(=O)N2CCC(O)(c3ccccc3)CC2)cc1	22.6	
NS(=O)(=O)c1ccc(C(=O)N2CCCCCC2)cc1	16.8	
NS(=O)(=O)c1ccc(C(=O)N2CCN(C(c3ccccc3)c3ccccc3)CC2)cc1	28.2	Activity [2]: Toxic; Activity [3]: Toxic; Activity (Mus musculus [4]): Active
CC(=O)C1(c2ccccc2)CCN(C(=O)c2ccc(S(N)(=O)=O)cc2)CC1	3.1	
NS(=O)(=O)c1ccc(C(=O)N2CCN(Cc3ccc(F)cc3)CC2)cc1	45.1	Activity [2]: Toxic; Activity [3]: Toxic; Activity (Mus musculus [4]): Active
N#CC1(c2ccccc2)CCN(C(=O)c2ccc(S(N)(=O)=O)cc2)CC1	18.4	
CC1CCCN(C(=O)c2ccc(S(N)(=O)=O)cc2)C1 (centres undefined)	2.4	
NS(=O)(=O)c1ccc(C(=O)N2CCCCC2)cc1	3.1	
NS(=O)(=O)c1ccc(C(=O)N2CCN(Cc3ccccc3)CC2)cc1	33.1	
NS(=O)(=O)c1ccc(C(=O)N2CCC(O)(c3ccc(Cl)cc3)CC2)cc1	24.9	
